Measurements: patent publication US11919873B1, “1,3-benzothiazol-2-yl-N′-(benzoyloxy)ethanimidamide as an antitumor and antimicrobial compound” (priority 2023, dated 2024)

Tests used:
[1] = test system: human prostate cancer cells (PC3); assay: Assessment of cytotoxicity by SRB assay, PC3; format: cell-based; conditions: 72 h, 0.01 μM to 100 μM, result in words only
Procedure: (§1) The human prostate cancer cells (PC3) and human osteosarcoma cells (MG-63) were obtained from Nawah Scientific Inc. (Mokatam, Cairo, Egypt) and cultured in DMEM (Dulbecco's modified eagle's medium), Gibco, USA, supplemented with fetal bovine serum (FBS) at a concentration of 10% and 100 U/mL of penicillin and streptomycin (PS). The cells were incubated at 37° C. in a humidified environment that contained 5% CO2. Cells were seeded in 96-well plates as aliquots of 100 μL cell suspension and incubated in a complete media for 24 h. Afterward, cells were treated with 3-(4-chlorophenyl)-5-{[5-methyl-2-(propan-2-yl)phenoxy]methyl}-1,2,4-oxadiazole at diverse concentrations ranging from 0.01 μM to 100 μM for 72 h. Then, cells were fixed at 4° C. for one hour with 150 μL of 10% trichloroacetic acid (TCA). […] Then, 150 μL of Tris pH 10.5 (10 mM) was added, and the absorbance was measured at 540 nm using a BMG LABTECH®—FLUOstar Omega microplate reader (Ortenberg, Germany). Half maximal inhibitory concentrations (IC50) values were calculated for each experiment using GraphPad Prism 6 software. […] The inhibition was calculated using the following equation: Inhibition %=100−Average Viability The anticancer activity of 1,3-benzothiazol-2-yl-N′-(benzoyloxy)ethanimidamide was assessed against highly aggressive androgen-independent metastatic human prostate cancer cells (PC3) and osteosarcoma (MG-63) cells.

[2] = test system: human osteosarcoma cells (MG-63); assay: Assessment of cytotoxicity by SRB assay, MG-63; format: cell-based; conditions: 72 h, 0.01 μM to 100 μM, result in words only
Procedure: as §1

[3] = test system: Bacillus cereus, Staphylococcus aureus, Pseudomonas aeruginosa, Escherichia coli, Aspergillus flavus, Chrysosporium keratinophilum; assay: Agar plate disc-diffusion antimicrobial test; format: cell-based; conditions: 10 μL of 10 mg/mL in DMSO per disc, bacteria and fungi, result in words only
Procedure: The agar plate disc-diffusion method was applied. Sterilized filter papers (6 mm in diameter) were wetted with 10 μL of a solution of each compound to be tested, containing 10 mg/mL in DMSO, and the discs were allowed to air dry. The discs were then placed onto the surface of agar plates (nutrient agar for bacteria and Sabouraud's dextrose agar for fungi) and seeded with the test organism. Each plate contained 15 mL of the agar medium, previously seeded with 0.2 mL of the broth culture of each organism pre-grown for 18 hours. The plates were incubated at 37° C. for 48 hours, and 72 hours for fungi. The inhibition zones were measured in mm. Discs impregnated with DMSO were used as a control, and its inhibition zone was subtracted from the tested compound actual inhibition zone. In particular, the present 1,3-benzothiazol-2-yl-N′-(benzoyloxy)ethanimidamide was screened against gram positive bacteria, namely Bacillus cereus and Staphylococcus aureus, and gram-negative bacterial strains, namely Pseudomonas aeruginosa and Escherichia coli, while the antifungal activity was screened against Aspergillus flavus and Chrysosporium keratinophilum.

melting point: 153 to 155 °C
Structure (SMILES): N/C(Cc1nc2ccccc2s1)=N\OC(=O)c1ccccc1 [1,3-benzothiazol-2-yl-N′-(benzoyloxy)ethanimidamide]
antiproliferative activity against PC3 cells [1]: excellent antiproliferative activities
antiproliferative activity against MG-63 cells [2]: excellent antiproliferative activities
antimicrobial activity against different microbes [3]: excellent antimicrobial activities
